# Tested on: HMG-CoA reductase
# Experiment: in vitro HMG-CoA reductase inhibition, relative potency versus compactin
# Format: biochemical
# Details: compactin (mevastatin) assigned a value of 100; IC50 of test compound compared with that of compactin determined simultaneously
# Protocol: The intrinsic HMG-CoA reductase inhibition activity of the claimed compounds is measured in the in vitro protocol published in J. Med. Chem., 28, p. 347-358 (1985).
# For estimation of relative inhibitory potencies, compactin (i.e., mevastatin) was assigned a value of 100 and the IC50 value of the test compound was compared with that of compactin determined simultaneously in the published in vitro protocol.
smiles,measurement,value
"C[C@H]1C=C2C=C[C@H](C)[C@H](CC[C@@H]3C[C@@H](O)CC(=O)O3)[C@H]2[C@@H](OC(=O)C(C)(C)Sc2ccncc2)C1 [Example 1, 6R-[2-[8(S)[2-methyl-2-(4-pyridinylthio)propionyloxy]-2(S), 6(R)-dimethyl-1,2,6,7,8,8a(R)-hexahydronaphthyl-1(S)]ethyl]-4(R)-hydroxy-3,4,5,6-tetrahydro-2H-pyran-2-one]",relative potency (intrinsic HMG-CoA reductase inhibitory activity),112
C[C@H]1C=C2C=C[C@H](C)[C@H](CC[C@@H]3C[C@@H](O)CC(=O)O3)[C@H]2[C@@H](OC(=O)C(C)(C)Sc2nc3ccccc3s2)C1 [Example 2],relative potency (intrinsic HMG-CoA reductase inhibitory activity),100

# — patent US4866068A, “Novel HMG-CoA reductase inhibitors” (Merck & Co., Inc., priority 1988, dated 1989)
